From patent US20140005260A1 (TRI-SERVICE GENERAL HOSPITAL, priority 2012, published 2014)

Tests used:
[1] = tested on: EGFR; assay: EGFR signaling in zebrafish embryos (EGFR dimers, EGFR phosphorylation, GSK3β); format: in vivo
[2] = tested on: zebrafish embryos; assay: Whole mount in situ hybridization (WISH) of snail, versican and cdh5 in zebrafish embryos; format: in vivo
Method: EGFR inhibitor AG 1478 (CalBiochem) was dissolved in DMSO and stocked as 1 mM at -20° C. […] Before use, the solution was re-dissolved at 65° C. for 1 h. In the control group, 100 embryos were placed in a 9 cm dish filled with a volume of 30 ml embryo medium containing 0.2 mM 1-phenyl-2-thio-urea (Sigma). […] Long-term treatment during 12-72 hpf included the specification stage of valve formation at 36-55 hpf and the invagination stage of valve formation at 55 hpf. Treatment during 12-48 hpf was used to examine the gene markers versican and cdh5 which expressed at the AVC. […] During mouse embryonic valve formation, Snail (Snail) in Snail family acts as the […] of cdh5 that inhibit the transcription of cdh5. […] WISH was performed as previously described (Nucleic Acids Res 2010; 38:4384-93). Riboprobe of cdh5 was prepared by cloning its partial DNA fragment, while riboprobe of versican was provided by […] (Nature 2003; 425:633-7). […] FIG. 7H).

[3] = tested on: B16OVA; assay: Versican V1, V2, Snail and E-cadherin protein level in treated cells; format: cell-based, murine; conditions: 15 μM for 24 hr
Excerpt: (§1) […]. […] […]. […] […].

[4] = tested on: B16OVA; assay: Level of AKT, pAKT, ERK and p-ERK in treated cells; format: cell-based, murine; conditions: 15 μM, vs control cells
Excerpt: (§2) […]. The EGFR signaling regulates cell proliferation through activates EGFR's intrinsic kinase and leads to activation of several downstream intracellular signaling pathways, including rat sarcoma-MAPK kinase (MEK)-extracellular-related kinase (ERK) and phosphoinositide 3-kinase (PI3K)-Akt pathways. It was reported the opposing effects of V1 and V2 on cell proliferation. […] […].

[5] = tested on: JC cells; assay: Tumor growth in Balb/c mice after SC injection of treated JC cells; format: in vivo; conditions: tumors from treated JC cells, vs control group and Mitomycin C-treated group
Excerpt: […]. […] For each group of tumors, the average volume for 3 tumors is plotted. Bars=95% confidence intervals.
Balb/c mice were inoculated by SC injection into the flank with contorl-Mitomycin C- or Amiodarone-treated JC cells. Each group had 3 mice, which were assigned to experimental groups randomly. All the other mice were sacrificed 2 weeks after treatment. […].

[6] = tested on: JC; assay: Level of AKT, pAKT, ERK and p-ERK in treated cells; format: cell-based, mouse; conditions: 15 μM, vs control cells
Excerpt: as §2

[7] = tested on: 4T-1 cells; assay: Level of AKT, pAKT, ERK and p-ERK in treated cells; format: cell-based, mouse; conditions: 15 μM, vs control cells
Excerpt: as §2

[8] = tested on: zebrafish embryos Tg(cmlc2:HcRFP); assay: In vivo observation of cardiac valve development in zebrafish embryos by HGM/2PF
Method: The zebrafish AB strain, as well as transgenic lines Tg(cmlc2:HcRFP) and Tg(cmlc2:EGFP), were cultured as previously described. Heart formation was observed under fluorescent stereomicroscopy (MZ Leica). […] The excitation source was a femtosecond Cr:forsterite laser with an output wavelength of 1230 nm. Second harmonic generation (SHG) and third harmonic generation (THG; J Struct Biol. 2004 147: 19-30) were applied to observe valve development in transgenic zebrafish Tg(cmlc2:HcRFP) in vivo. RFP marked the myocardial cells, while THG (410 nm) marked all cells in yellow, and SHG (615 nm) marked the skeletal and cardiac muscles in green. Paraffin sectioning with Hematoxylin and Eosin (H&E) staining was also used to perform histochemical analysis of the heart.
EGFR inhibitor AG 1478 (CalBiochem) was dissolved in DMSO and stocked as 1 mM at −20° C. […] Before use, the solution was re-dissolved at 65° C. for 1 h. In the control group, 100 embryos were placed in a 9 cm dish filled with a volume of 30 ml embryo medium containing 0.2 mM 1-phenyl-2-thio-urea (Sigma). […] Long-term treatment during 12-72 hpf included the specification stage of valve formation at 36-55 hpf and the invagination stage of valve formation at 55 hpf. Treatment during 12-48 hpf was used to examine the gene markers versican and cdh5 which expressed at the AVC.
By using HGH/2 PF to examine the zebrafish embryos derived from transgenic line Tg(cmlc2:HcRFP), the dynamics of valve development in vivo could easily be observed. For example, at 48 hpf, there was a single layer of cells in the endocardium at the AVC (FIG. 1A). […] Finally, at 87 hpf, the elongated structure was protruding towards the ventricle (FIG. 1C).

[9] = tested on: B16OVA; assay: MTT cell survival assay; format: cell-based, murine; conditions: 24 hr
Method: (§3) […]. Data is represented as a percentage of the DMSO control (DMSO), which is set to 100% and is expressed as mean±SEM (n=3).
(§4) It is well known that the Versican V1 increases EGFR signaling. […]. […]. Cells were plated at a density of 1×10^4 per well in 96-well plates and incubated for 12-16 h to allow cells to adhere. After 24 h, 0.5 mg/mL 3-(4,5-dimethylthiazol-2-yl)-2,5-diphenyltetrazolium bromide (MTT; Sigma) was added, and the cells were incubated for 4 h. Following incubation, each well was added 100 μl of 10% SDS/0.01N HCl solution and shaking for 5 min. Then, the absorbance was measured at 570 nm. Results were representative of three independent experiments, each done in quintuplicate. […].

[10] = tested on: JC cell; assay: MTT cell survival assay; format: cell-based, mouse; conditions: 24 hr
Method: as §3, §4

[11] = tested on: B16OVA cells
Method: (§5) For wound healing assays, B16OVA, JC or 4T-1 cells (1×10^6) were seeded onto 6-well plates in DMEM/RPMI 1640 medium and maintained at 37° C. until they reached 95% confluence. The monolayer of cells was wounded by a sterile pipette tip to create a 1-mm cell-free path. Culture medium was removed and the samples were washed with PBS, followed by culturing in DMEM/RPMI 1640 medium with 10 μg/ml of the Mitomycin C. Cells were photographed under a low-magnification microscope. […] The distances between the wounding centre and the front of the migrating cells (vertical axis) were measured for statistical analysis. […] To determine cell migration in the absence of cell proliferation, Mitomycin C was used to block mitosis and thus allowed the analysis of cell migration in the absence of cell proliferation.

[12] = tested on: JC; assay: Versican V1, V2, Snail and E-cadherin protein level in treated cells; format: cell-based, mouse; conditions: 15 μM for 24 hr
Excerpt: as §1

[13] = tested on: 4T-1 cells; assay: as above; format: cell-based, mouse; conditions: 15 μM for 24 hr
Excerpt: as §1

[14] = tested on: S-vcanb; assay: Western blot of S-vcanb protein in zebrafish embryos; format: in vivo; conditions: treated embryos
[15] = tested on: JC cells; conditions: Mitomycin C alone, 10 μg/ml
Method: as §5

[16] = tested on: Cdh5; assay: Western blot of Cdh5 protein in zebrafish embryos; format: in vivo; conditions: 1.5 ng injected at one cell stage, 72 hpf embryos
Method: Cdh5 antibody was used to detect the amount of Cdh5 protein expression by Western blot. The embryos were dechorionated and deyolked with two extra washing steps as described in Link et al. (BMC Dev Biol 2006; 6:1). Deyolked samples were dissolved in 2 μl of 2×SDS sample buffer for each embryo and incubated for 5 min at 95[…]. After full-speed centrifugation for 1 min in a microcentrifuge to remove insoluble particles, total proteins extracted from embryos were analyzed on a 12% SDS-PAGE gel, and Western blot analysis was performed (J Biol Chem 2011; 286:6855-64) using antiserum against mouse Cdh5 (15; 1:10,000). Anti-α-tubulin and anti-β-actin served as a protein loading control. Knockdown experiments were performed as follows: morpholino nucleic acid oligomers (MOs) were purchased from GeneTools (USA): vcana-MO ([…], SEQ ID NO: 1); s-vcanb-MO ([…], SEQ ID NO: 2); snai1b-MO ([…], SEQ ID NO: 3) (Development 134, 4073-4081, 2007); cdh5-MO ([…], SEQ ID NO: 4) (Developmental Dynamics. 2004. 231, 204-213; PloS One 2010. 5, e8807); troponin T2a, cardiac-MO (5′-[…]-3′, SEQ ID NO: 5) (Nat. Genet. 2002. 31, 106-110); and standard control-MO ([…], SEQ ID NO: 6). […]

Compound: COc1cc2ncnc(Nc3cccc(Cl)c3)c2cc1OC [AG1478]
- activity of GSK3β ([1]; AG1478 treatment, 7 μM): increased significantly
- total level of GSK3β ([1]; AG1478 treatment, 7 μM): unchanged
- cdh5 expression at the heart field ([2]; 7 μM, embryos at 55 to 72 hpf): ectopic expression
- snail1b expression ([2]; 7 μM, embryos at 55 to 72 hpf): lost

Compound: CCCCc1oc2ccccc2c1C(=O)c1cc(I)c(OCCN(CC)CC)c(I)c1 [Amiodarone]
- E-cadherin protein level [3]: increased significantly
- Snail protein level [3]: greatly reduced
- Versican V1 expression [3]: reduced
- Versican V2 expression ([3]; vs control cells): increased
- phosphorylated AKT [4]: reduced greatly
- phosphorylated ERK42/44 [4]: reduced greatly
- total level of AKT [4]: unchanged
- total level of ERK [4]: unchanged
- tumor growth [5]: grew slower
- phosphorylated AKT [6]: reduced greatly
- phosphorylated ERK42/44 [6]: reduced greatly
- total level of AKT [6]: unchanged
- total level of ERK [6]: unchanged
- phosphorylated AKT [7]: reduced greatly
- phosphorylated ERK42/44 [7]: reduced greatly
- total level of AKT [7]: unchanged
- total level of ERK [7]: unchanged
- endocardial cells at the AVC ([8]; 15 μM during 12-48 hpf): no difference between treated and untreated embryos
- valve structure ([8]; 15 μM during 12-72 hpf): only a small aggregation of cells were seen at the upper valve site
- cellular aggregation at the valve region ([8]; 15 μM during 12-87 hpf, compared to untreated embryos): almost no cellular aggregation at the valve region
- cell survival (MTT) ([9]; 15 μM): did not influence
- cell survival (MTT) ([9]; 10˜30 μM): does not influence
- cell survival (MTT) ([10]; 15 μM): did not influence
- cell survival (MTT) ([10]; 10˜30 μM): does not influence
- morphological change ([11]; cells at a growing phase, vs control cells): appeared more stripe and spread out than control cells
- E-cadherin protein level [12]: increased significantly
- Snail protein level [12]: greatly reduced
- Versican V1 expression [12]: reduced
- Versican V2 expression ([12]; vs control cells): increased
- E-cadherin protein level [13]: increased significantly
- Snail protein level [13]: greatly reduced
- Versican V1 expression [13]: no difference
- Versican V2 expression ([13]; vs control cells): increased
- expression of S-vcanb protein [14]: increased
- EGFR dimeration ([1]; 72 hpf treated embryos): increased
- activity of GSK3β ([1]; Amiodarone treated embryos): increased significantly
- total level of GSK3β ([1]; Amiodarone treated embryos): unchanged
- phosphorylation of EGFR (Tyr-845) ([1]; treated embryos, dosage dependent manner): reduced
- snai1b mRNA expression at the AVC ([2]; 15 μM, treated during 55-72 hpf, observed at 72 hpf): lost and decreased or even disappeared
- vcana and s-vcanb expression at the heart field ([2]; 72 hpf embryos): induced
- snai1a mRNA expression in the heart ([2]; treated during 55-72 hpf, observed at 72 hpf): still was not expressed in the heart

Compound: CO[C@@]12[C@H](COC(N)=O)C3=C(C(=O)C(C)=C(N)C3=O)N1C[C@@H]1N[C@@H]12 [Mitomycin C]
- time course of wound closure [15]: did not affect the time course of wound closure
- time course of wound closure ([11]; Mitomycin C alone, 10 μg/ml): did not affect the time course of wound closure

Compound: snail1b-MO: morpholino nucleic acid oligomer TTGACAAGA AATGAGCGTGGCATCT, SEQ ID NO: 3 (antisense TTGACAAGAAATGAGCGTGGCATCT; all phosphorodiamidate morpholino (PMO))
- expression of Cdh5 protein relative to wild-type [16]: 1.5 fold
